Laboratory results from ChEMBL document CHEMBL1201862, “PubChem BioAssay data set” (2004).
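Grown in 96-well plates, cells were treated for 48 hours with each compound at five concentrations. Insufficient inhibition: endpoint recorded as highest concentration tested. Abbreviation: GI50, concentration required for 50% inhibition of growth.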 The source made the active and inactive calls. No stated cut-off is given here; in the data, active = GI50 up to about 1.1 µM and inactive = higher.

How the values were obtained:
Test in all cases: NCI anticancer screen, dose series, 48 h
[1] = tested on: DMS-114
[2] = tested on: IGROV-1
[3] = tested on: 786-0
[4] = tested on: SW-620
[5] = tested on: DMS-273
[6] = tested on: KM12
[7] = tested on: HT-29
[8] = tested on: HCT-116
[9] = tested on: LOX IMVI
[10] = tested on: SNB-75
[11] = tested on: SNB-19
[12] = tested on: A498
[13] = tested on: SF-539
[14] = tested on: OVCAR-5
[15] = tested on: OVCAR-8
[16] = tested on: COLO 205
[17] = tested on: SK-OV-3
[18] = tested on: LXFL 529
[19] = tested on: SK-MEL-28
[20] = tested on: Malme-3M
[21] = tested on: SK-MEL-2
[22] = tested on: MOLT-4
[23] = tested on: EKVX
[24] = tested on: DLD-1
[25] = tested on: NCI-H522
[26] = tested on: SF-295
[27] = tested on: M14
[28] = tested on: NCI-H23
[29] = tested on: CAKI-1
[30] = tested on: ACHN
[31] = tested on: SR
[32] = tested on: RPMI-8226
[33] = tested on: NCI-H226
[34] = tested on: CCRF-CEM
[35] = tested on: NCI-H460
[36] = tested on: KM-20L2
[37] = tested on: SK-MEL-5
[38] = tested on: HL-60
[39] = tested on: SF-268
[40] = tested on: SNB-78
[41] = tested on: U-251
[42] = tested on: A549
[43] = tested on: OVCAR-3
[44] = tested on: UACC-257
[45] = tested on: UO-31
[46] = tested on: HCC 2998
[47] = tested on: K562
[48] = tested on: HOP-62
[49] = tested on: RXF 393
[50] = tested on: HOP-92
[51] = tested on: SN12C
[52] = tested on: M19-MEL
[53] = tested on: UACC-62
[54] = tested on: TK-10
[55] = tested on: OVCAR-4

Q: `O=S1(=O)c2ccccc2N(O)C2=NCCN21` was tested. Which GI50 [1] did it give?
A: > 100 µM (inactive)

Q: What about the GI50 [2] of the same molecule?
A: > 100 µM (inactive)

Q: And the GI50 [3]?
A: > 100 µM (inactive)

Q: And the GI50 [4]?
A: > 100 µM (inactive)

Q: And the GI50 [5]?
A: > 100 µM (inactive)

Q: And the GI50 [6]?
A: > 100 µM (inactive)

Q: And the GI50 [7]?
A: > 100 µM (inactive)

Q: And the GI50 [8]?
A: > 100 µM (inactive)

Q: And the GI50 [9]?
A: > 100 µM (inactive)

Q: And the GI50 [10]?
A: > 100 µM (inactive)

Q: And the GI50 [11]?
A: > 100 µM (inactive)

Q: What about the GI50 [12] of the same molecule?
A: 28.6 µM (inactive)

Q: What about the GI50 [13] of the same molecule?
A: > 100 µM (inactive)

Q: And the GI50 [14]?
A: > 100 µM (inactive)

Q: What about the GI50 [15] of the same molecule?
A: > 100 µM (inactive)

Q: What about the GI50 [16] of the same molecule?
A: > 100 µM (inactive)

Q: What about the GI50 [17] of the same molecule?
A: > 100 µM (inactive)

Q: And the GI50 [18]?
A: > 100 µM (inactive)

Q: And the GI50 [19]?
A: > 100 µM (inactive)

Q: What about the GI50 [20] of the same molecule?
A: > 100 µM (inactive)

Q: And the GI50 [21]?
A: > 100 µM (inactive)

Q: And the GI50 [22]?
A: > 100 µM (inactive)

Q: And the GI50 [23]?
A: > 100 µM (inactive)

Q: What about the GI50 [24] of the same molecule?
A: > 100 µM (inactive)

Q: What about the GI50 [25] of the same molecule?
A: > 100 µM (inactive)

Q: What about the GI50 [26] of the same molecule?
A: > 100 µM (inactive)

Q: And the GI50 [27]?
A: > 100 µM (inactive)

Q: What about the GI50 [28] of the same molecule?
A: > 100 µM (inactive)

Q: And the GI50 [29]?
A: > 100 µM (inactive)

Q: And the GI50 [30]?
A: > 100 µM (inactive)

Q: What about the GI50 [31] of the same molecule?
A: > 100 µM (inactive)

Q: What about the GI50 [32] of the same molecule?
A: > 100 µM (inactive)

Q: What about the GI50 [33] of the same molecule?
A: 25.9 µM (inactive)

Q: What about the GI50 [34] of the same molecule?
A: > 100 µM (inactive)

Q: What about the GI50 [35] of the same molecule?
A: > 100 µM (inactive)

Q: What about the GI50 [36] of the same molecule?
A: > 100 µM (inactive)

Q: What about the GI50 [37] of the same molecule?
A: > 100 µM (inactive)

Q: And the GI50 [38]?
A: > 100 µM (inactive)

Q: What about the GI50 [39] of the same molecule?
A: > 100 µM (inactive)

Q: What about the GI50 [40] of the same molecule?
A: > 100 µM (inactive)

Q: And the GI50 [41]?
A: > 100 µM (inactive)

Q: And the GI50 [42]?
A: > 100 µM (inactive)

Q: And the GI50 [43]?
A: > 100 µM (inactive)

Q: And the GI50 [44]?
A: > 100 µM (inactive)

Q: What about the GI50 [45] of the same molecule?
A: > 100 µM (inactive)

Q: And the GI50 [46]?
A: > 100 µM (inactive)

Q: And the GI50 [47]?
A: > 100 µM (inactive)

Q: And the GI50 [48]?
A: > 100 µM (inactive)

Q: What about the GI50 [49] of the same molecule?
A: > 100 µM (inactive)

Q: What about the GI50 [50] of the same molecule?
A: > 100 µM (inactive)

Q: What about the GI50 [51] of the same molecule?
A: > 100 µM (inactive)

Q: What about the GI50 [52] of the same molecule?
A: > 100 µM (inactive)

Q: What about the GI50 [53] of the same molecule?
A: > 100 µM (inactive)

Q: What about the GI50 [54] of the same molecule?
A: > 100 µM (inactive)

Q: Which results are given for `CC(=O)NC1=C(C)C(=O)c2c(nc3n2CCC3OC(=O)c2ccccc2)C1=O` (stereo not drawn)?
A: GI50 [1]: 0.805 µM (active); GI50 [2]: 2.08 µM (inactive); GI50 [3]: 4.3 µM (inactive); GI50 [4]: 1.79 µM (inactive); GI50 [5]: 2.07 µM (inactive); GI50 [6]: 2.61 µM (inactive); GI50 [7]: 0.514 µM (active); GI50 [8]: 1.94 µM (inactive); GI50 [9]: 1.51 µM (inactive); GI50 [10]: 3.58 µM (inactive); GI50 [11]: 2.69 µM (inactive); GI50 [12]: 12.7 µM (inactive); GI50 [13]: 1.93 µM (inactive); GI50 [14]: 1.99 µM (inactive); GI50 [15]: 1.3 µM (inactive); GI50 [16]: 4 µM (inactive); GI50 [17]: 2.03 µM (inactive); GI50 [18]: 1.56 µM (inactive); GI50 [19]: 1.86 µM (inactive); GI50 [20]: 1.64 µM (inactive); GI50 [21]: 1.7 µM (inactive); GI50 [22]: 1.99 µM (inactive); GI50 [23]: 1.63 µM (inactive); GI50 [24]: 1.81 µM (inactive); GI50 [25]: 2.04 µM (inactive); GI50 [26]: 1.51 µM (inactive); GI50 [27]: 1.98 µM (inactive); GI50 [28]: 1.67 µM (inactive); GI50 [29]: 2.6 µM (inactive); GI50 [30]: 3.04 µM (inactive); GI50 [31]: 2.37 µM (inactive); GI50 [32]: 2.04 µM (inactive); GI50 [33]: 2.05 µM (inactive); GI50 [55]: 1.52 µM (inactive); GI50 [34]: 1.19 µM (inactive); GI50 [35]: 2.37 µM (inactive); GI50 [37]: 1.75 µM (inactive); GI50 [38]: 1.92 µM (inactive); GI50 [39]: 2.21 µM (inactive); GI50 [40]: 2.71 µM (inactive); GI50 [41]: 1.89 µM (inactive); GI50 [42]: 1.7 µM (inactive); GI50 [43]: 0.223 µM (active); GI50 [44]: 1.54 µM (inactive); GI50 [45]: 2.82 µM (inactive); GI50 [46]: 4.81 µM (inactive); GI50 [47]: 2.32 µM (inactive); GI50 [48]: 2.34 µM (inactive); GI50 [49]: 3.79 µM (inactive); GI50 [50]: 1.9 µM (inactive); GI50 [51]: 1.79 µM (inactive); GI50 [52]: 1.69 µM (inactive); GI50 [53]: 1.92 µM (inactive); GI50 [54]: 6.43 µM (inactive)
